# Test results from US9821000B2, “Compounds, compositions and corresponding uses for preventing and/or treating of dyslipidemia” (CENTRE NATIONAL DE LA RECHERCHE SCIENTIFIQUE (CNRS), priority 2013, dated 2017).
# Entries after “also recorded” stand apart in the source; their conditions may differ.
# What was measured:
# QM strain = assay: Toxicity test on QM strain (growth inhibition haloes); assay type: cell-based, Saccharomyces cerevisiae; settings: after three days; for toxicity for cells that do not synthesize triglycerides: QM strain on agar medium; for haloes of growth inhibition (absence of colonies): QM strain, 5 μl drops on agar
# Method: 5 μl drops of OAG, LPA or oleic acid were deposited, from stock solutions in the concentrations indicated, on the surface of an agar medium on which the QM strain had been preliminarily spread. […] These haloes are on the contrary not observed in the presence of LPA and OAG.
# At the same time, wild strains (WT) and QM are cultivated in aerobic conditions under stirring and at 28° C., in a YPG liquid medium before seeding 3500 cells per cm^2 of YPG+agar 2% (m/v). Following this transfer to solid medium, 1 μL drops of solutions of different compounds at 1, 10 and 100 mM in DMSO or EtOH are deposited on the surface of the agar. Separately, deposits of DMSO and EtOH are also made in order to assess the intrinsic toxicity of these two solvents. After three days of culture of 28° C., the toxicity of the tested compounds is evaluated by comparing the diameters of the growth inhibition haloes obtained for the deposits of undissolved solvents with those of the deposits of different concentrations of compounds tested.
# eIF2α = assay: Western blotting of eIF2α phosphorylation (UPR) in BRIN-BD11 cells; assay type: cell-based, rat; settings: BRIN-BD11, palmitic acid 200 μM
# Method: The BRIN-BD11 pancreatic β-cells were cultivated in controlled conditions or in the presence of an exogenous source of saturated fatty acids (palmitic acid 200 μM), as described by Dhayal& Morgan (2011) in order to generate conditions of lipotoxicity with or without addition of OAG or LPA.
# FIG. 7B—The rates of phosphorylation of eIF2α were also analyzed under different conditions by Western blotting method, in the absence (Ø) or in the presence of OAG or LPA and normalized with quantities of total eIF2α. […] A.U.: arbitrary units.
# The cells BRIN-BD11 are seeded at a density of 0.5×10^5 cells/mL in T25 flasks for 24 h. As indicated here above, the complete medium is then replaced by an equivalent devoid of FCS but containing the lipid reagents of interest. […] In a second stage, the membranes are stripped with the buffer Re-Blot Plus-Strong (Millipore) and then probed a second time with total anti-eIF2α antibodies (CellSignalling (New EnglandBiolabs) diluted to 1/1000th. The analysis by densitometry of the relative abundance of the phosphorylated and non-phosphorylated forms of the protein eIF2α is done with the Fluor-S Multi-imager analysis system combined with the software program Quantify One (Biorad UK Ltd).
# hem1Δ yeasts = assay: Restoration of growth of lipo-intoxicated hem1Δ yeasts (drop test on agar); assay type: cell-based, Saccharomyces cerevisiae; settings: SFA accumulation conditions; 5 μl drops on agar; after three days
# Method: FIG. 3B—The hem1Δ yeasts were cultivated in conditions of SFA accumulation as indicated. 5 μl drops of OAG, LPA and oleic acid in the concentrations indicated were then deposited on the surface of the agar medium. The restoration of growth of the hem1Δ yeasts is observed in the formation of colonies after three days.
# The strain carrying the hem1Δ strain is cultivated, under aerobic conditions, under stirring and at 28° C., in a YPG^A liquid medium (YPG (yeast extract 1% (m/v), peptone 1% (m/v) and glucose 2% (m/v)) supplemented with δ-aminolevulinic acid (ALA) at 80 μg/mL). Lipotoxicity by saturated fatty acids (SFA) is prompted by depletion of unsaturated fatty acids (UFA)—the synthesis of which is dependent on the presence of haem (prosthetic grouping of the enzyme Ole1p especially)—by transfer into YPG^+ medium (YPG supplemented with ergosterol at 80 μg/mL to compensate for the depletion in sterol obtained under these conditions). The lipotoxicity can be induced in a solid medium YPG^++agar 2% (m/v) in transferring 3500 cells (hem1Δ coming from a pre-culture in YPG^A)/cm^2 or *alternatively in a liquid medium in inoculating 2·10^6 cells/mL of YPG^+. Classically, the effects of lipotoxicity on SFA are analyzed 7 h after the transfer into YPG^+ medium. The capacity of a compound to counter the deleterious effects of lipotoxicity with SFA is for its part evaluated successively with the addition of this compound on (or in) the YPG^+ transfer medium after seeding with cells.
# 1) Screening of compounds: Following the induction of lipotoxicity with SFA (for hem1Δ cultivated in a solid medium), 5 μL drops of solutions of different compounds at 10 mM in dimethylsulfoxide (DMSO) or in ethanol (EtOH) are deposited on the surface of agar. The capacity of a compound to counter the lipo-induced stoppage of cell growth is estimated by the appearance of a halo of hem1Δ colonies at the position of the deposit of said compound after three days of culture at 28° C. (cf. Deguil et al., 2011).
Structure (SMILES),toxicity for cells that do not synthesize triglycerides (QM strain),haloes of growth inhibition (absence of colonies) (QM strain),UPR induction (rate of phosphorylation of eIF2α normalized to total eIF2α) (eIF2α),restoration of growth of lipo-intoxicated hem1Δ yeasts (formation of colonies) (hem1Δ yeasts)
"CCCCCCCC/C=C\CCCCCCCC(=O)OC[C@H](CO)OC(C)=O [OAG, 1-oleoyl-2-acetyl-sn-glycerol]",not toxic,not observed,reducing the induction rate of UPR; also recorded: reduces the UPR,restore the growth
"CCCCCCCC/C=C\CCCCCCCC(=O)OC[C@@H](O)COP(=O)(O)O [LPA, 1-oleoyl-sn-glycerol-3-phosphate]",not toxic,not observed,reducing the induction rate of UPR,restore the growth
